In patent US6413761B2, “Decaprenyl diphosphate synthetase gene” (Toyota Jidosha Kabushiki Kaisha, priority 1997, dated 2002):

Test system: DPP synthetase
Assay: Substrate specificity of the DPP synthetase on various allylic primers ([14C]IPP incorporation)
Assay type: biochemical, Paracoccus denitrificans
Settings: for Enzyme Activity: allylic primer 25 μM, [14C]IPP 125 μM, 37° C., 1 hour; for Activity of the DPP synthetase with the allylic substrate (in words): substance used as allylic primer substrate
Procedure: A 200 μl reaction solution shown below was prepared using an appropriate amount of the crude enzyme extract, various allylic primers and [^1-14C]IPP (54 or 57 Ci/mol; Amersham).
The solution was incubated at 37° C. for 1 hour to allow an enzyme reaction. Then, 200 μl of saturated aqueous NaCl solution and 1 ml of n-BuOH saturated with saturated aqueous NaCl solution were added thereto and agitated well. The resultant solution was centrifuged to extract the reaction products. 200 μl of the BuOH layer was collected, and 3 ml of Clear Sol was added thereto. Then, the enzyme activity was determined by measuring the radioactivity in the BuOH extract with a liquid scintillation counter. The enzyme activity was expressed in unit, one unit being the amount of IPP (nmol) taken into the reaction products per 1 minute.
The substrate specificity of this DPP synthetase has been examined on various allyl primers. The unit of enzyme activity is as defined above.

Structure (SMILES) | Enzyme Activity (+Triton X-100 (0.5%)) | Activity of the DPP synthetase with the allylic substrate (in words) | Enzyme Activity (−Triton X-100)
CC(C)=CCC/C(C)=C/CC/C(C)=C/CC/C(C)=C\COP(=O)(O)OP(=O)(O)O [ZEE-GGPP, ZEE-geranylgeranyl diphosphate] | 3.68 ×10^−3 unit | little activity | 2.47 ×10^−3 unit
CC(C)=CCC/C(C)=C/COP(=O)(O)OP(=O)(O)O [GPP, geranyl diphosphate] | 19.8 ×10^−3 unit | slight activity | 1.78 ×10^−3 unit
CC(C)=CCC/C(C)=C/CC/C(C)=C/CC/C(C)=C/COP(=O)(O)OP(=O)(O)O [EEE-GGPP, EEE-geranylgeranyl diphosphate] | 35.33 ×10^−3 unit | strong activity | 3.22 ×10^−3 unit
